The record followed here is PubChem BioAssay (NCI).

Test systems include CAKI-1 renal; COLO 205 colon; HS 578T breast; MALME-3M melanoma; NCI-H522 lung; RPMI-8226 leukemia; SK-MEL-2 melanoma; SK-MEL-5 melanoma; SK-OV-3 ovarian; SN12C renal.
Common to all, as to assay: NCI anticancer screen, dose series, 48 h

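Interpolation was linear, between the two tested concentrations surrounding the appropriate level; five concentrations were tested over 48 hours in 96-well plates. TGI denotes the concentration required for complete inhibition of growth.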

Take `CC[C@@H]1CN2CCC1C[C@@H]2C(O)c1ccnc2ccc(OCCN3CCN(CCOc4ccc5nccc(C(O)[C@@H]6C[C@@H]7CCN6C[C@@H]7CC)c5c4)CC3)cc12` (stereo not given in full): the TGI with CAKI-1 renal was 32.5 µM; in the experiment with COLO 205 colon, 33.1 µM; with HS 578T breast it was 46.6 µM; with MALME-3M melanoma, 54.1 µM; in the experiment with NCI-H522 lung it was 61.8 µM; in the experiment with RPMI-8226 leukemia it was 8.45 µM. Further, the TGI in the experiment with SK-MEL-2 melanoma was determined as 37.2 µM; in the experiment on SK-MEL-5 melanoma, 32 µM; in the experiment on SK-OV-3 ovarian it was 33.2 µM; in the experiment with SN12C renal, 28.9 µM.
On to `CN(C)CCN1C(=O)CC[C@@]2(C)C1=CC[C@@H]1[C@@H]2CC[C@@]2(C)[C@H]1CC[C@]2(C)O`, for which the TGI with CAKI-1 renal, with COLO 205 colon, with HS 578T breast, with MALME-3M melanoma, in the experiment with NCI-H522 lung and with RPMI-8226 leukemia was greater than 100 µM throughout. Also, the TGI in the experiment with SK-MEL-2 melanoma, in the experiment on SK-MEL-5 melanoma, with SK-OV-3 ovarian and with SN12C renal was greater than 100 µM in each case.
As for `CSC(SC)=C1C(=O)NN=C1C`, the TGI with CAKI-1 renal, with COLO 205 colon, in the experiment on HS 578T breast, in the experiment on MALME-3M melanoma, with NCI-H522 lung and in the experiment on RPMI-8226 leukemia was greater than 100 µM each time. Also, the TGI in the experiment with SK-MEL-2 melanoma, in the experiment on SK-MEL-5 melanoma, with SK-OV-3 ovarian and with SN12C renal was greater than 100 µM in each case.
Consider `Cc1cn(CC2=NCCN2)c(=O)[nH]c1=O`, for which the TGI in the experiment on CAKI-1 renal, in the experiment on COLO 205 colon, in the experiment on HS 578T breast, with MALME-3M melanoma, with NCI-H522 lung and in the experiment on RPMI-8226 leukemia was greater than 100 µM in each case. In addition, the TGI in the experiment with SK-MEL-2 melanoma, with SK-MEL-5 melanoma, with SK-OV-3 ovarian and in the experiment on SN12C renal was greater than 100 µM in each case.
Consider `Cc1cc(S(N)(=O)=O)c(SCc2nc(N)nc(N(C)C)n2)cc1Cl`, for which the TGI in the experiment with CAKI-1 renal, in the experiment with COLO 205 colon, in the experiment with HS 578T breast, in the experiment with MALME-3M melanoma, with NCI-H522 lung and with RPMI-8226 leukemia was greater than 10 µM in each case. Also, the TGI in the experiment on SK-MEL-2 melanoma, in the experiment on SK-MEL-5 melanoma, in the experiment with SK-OV-3 ovarian and in the experiment with SN12C renal was greater than 10 µM in each case.
With `COc1ccccc1/C=C1\Sc2scc(-c3cccc([N+](=O)[O-])c3)[n+]2C1=O`, the TGI was 6.24 µM with CAKI-1 renal; 5.19 µM in the experiment on COLO 205 colon; greater than 62.6 µM in the experiment on HS 578T breast; 15.7 µM with MALME-3M melanoma; 3.61 µM with NCI-H522 lung; 9.28 µM in the experiment with RPMI-8226 leukemia. Also, the TGI with SK-MEL-2 melanoma is 31.3 µM; in the experiment with SK-MEL-5 melanoma it was 8.86 µM; with SK-OV-3 ovarian, 26 µM; with SN12C renal it was 11.5 µM.
On to `C[C@H](CCC1=NCCN1)[C@H]1CC[C@H]2[C@@H]3[C@H](O)C[C@@H]4C[C@H](O)CC[C@]4(C)[C@H]3CC[C@]12C`, for which the TGI in the experiment with CAKI-1 renal is 40.9 µM; with COLO 205 colon, 21.1 µM; with HS 578T breast, 28.5 µM; in the experiment on MALME-3M melanoma, 29.2 µM; with NCI-H522 lung, 28.5 µM; with RPMI-8226 leukemia it was 35.3 µM. The TGI in the experiment on SK-MEL-2 melanoma turned out to be 29.9 µM; in the experiment with SK-MEL-5 melanoma, 27.3 µM; in the experiment on SK-OV-3 ovarian, 33.1 µM; with SN12C renal, 37 µM.
Take `O=C(CCCN1CCC2(CC1)C(=O)NC(=O)N2c1ccccc1)c1ccc(F)cc1`: the TGI with CAKI-1 renal, with COLO 205 colon, with HS 578T breast, with MALME-3M melanoma, with NCI-H522 lung and in the experiment on RPMI-8226 leukemia was greater than 100 µM throughout. The TGI in the experiment on SK-MEL-2 melanoma, with SK-MEL-5 melanoma, with SK-OV-3 ovarian and in the experiment with SN12C renal was greater than 100 µM throughout.
`Cc1ccc(-c2sc(-c3ccc(C)cc3)c3c2C2CCC3C2)cc1`: the TGI in the experiment on CAKI-1 renal, in the experiment with COLO 205 colon, in the experiment with HS 578T breast, in the experiment on MALME-3M melanoma, in the experiment on NCI-H522 lung and with RPMI-8226 leukemia was greater than 50 µM in each case. The TGI in the experiment on SK-MEL-2 melanoma, in the experiment with SK-MEL-5 melanoma, in the experiment with SK-OV-3 ovarian and in the experiment on SN12C renal was greater than 50 µM each time.
Regarding `CC(=O)Oc1c(C)cc(-c2cc(C)c(OC(C)=O)c(C)c2)cc1C`, the TGI was greater than 100 µM with CAKI-1 renal; greater than 100 µM in the experiment on COLO 205 colon; 60.1 µM with HS 578T breast; greater than 100 µM with MALME-3M melanoma; 98.2 µM in the experiment on NCI-H522 lung; greater than 100 µM with RPMI-8226 leukemia. Also, the TGI is greater than 100 µM in the experiment with SK-MEL-2 melanoma, greater than 100 µM with SK-MEL-5 melanoma, 38.4 µM with SK-OV-3 ovarian and greater than 100 µM in the experiment with SN12C renal.
